Measured values taken from patent US20230142090A1 (priority 2020, published 2023).
“Also recorded” adds a separate entry of the source. Read-outs that look alike come from different tables or passages of the source.

Experiments:
[1] = biological target: T1, HilD (Salmonella typhimurium, UniProt P0CL08); type: binding
T1 construct: 6×His-NusA (followed by HRV 3C protease site) (N, cleaved yes); made in house; host or cells: E. coli BL21(DE3)
T1 sequence (P0CL08 1-309): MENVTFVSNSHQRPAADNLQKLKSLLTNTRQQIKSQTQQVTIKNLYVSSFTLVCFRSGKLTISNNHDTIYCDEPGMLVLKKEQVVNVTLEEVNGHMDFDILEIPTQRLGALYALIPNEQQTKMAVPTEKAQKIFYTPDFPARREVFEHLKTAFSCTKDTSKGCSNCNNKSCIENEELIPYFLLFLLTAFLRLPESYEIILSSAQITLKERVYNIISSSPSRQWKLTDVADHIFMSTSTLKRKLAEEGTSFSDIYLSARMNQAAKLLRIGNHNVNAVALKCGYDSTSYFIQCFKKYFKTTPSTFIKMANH

[2] = test system: HEp-2 cell invasion by Salmonella; type: cell-based
[3] = biological target: HilD (Salmonella typhimurium, UniProt P0CL08); type: cell-based
[4] = test system: cholera toxin; type: cell-based, V. cholerae Haiti and N16961
[5] = test system: cholera toxin genes ctxAB; type: cell-based, Vibrio cholerae C6706 EI Tor strain
[6] = test system: hilA expression; type: cell-based
[7] = biological target: T2, HilC (Salmonella typhimurium, UniProt P0CL09); type: binding
T2 sequence (P0CL09 1-295): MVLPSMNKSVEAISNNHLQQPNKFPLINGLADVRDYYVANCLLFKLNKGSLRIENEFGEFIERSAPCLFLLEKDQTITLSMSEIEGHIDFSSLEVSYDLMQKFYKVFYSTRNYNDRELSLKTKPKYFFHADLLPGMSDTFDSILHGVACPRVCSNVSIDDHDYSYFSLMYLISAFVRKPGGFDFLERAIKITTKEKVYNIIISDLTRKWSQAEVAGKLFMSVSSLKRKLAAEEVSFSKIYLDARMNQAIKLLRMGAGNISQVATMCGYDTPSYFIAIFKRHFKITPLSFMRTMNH

[8] = test system: Salmonella SPI1 expression (sicA-GFP); set-up: species or system C57BL/6 mice; details: mouse, in vivo
[9] = test system: toxin co-regulated pili gene (tcpA); type: cell-based, Vibrio cholerae
[10] = test system: RtsA; type: binding, Salmonella
[11] = test system: Salmonella; type: cell-based
[12] = test system: sopB expression; type: cell-based
[13] = hilC and rtsA deleted, hilD under tetracycline-inducible promoter, 20 μM (FIG. 4C)

## CCCCCCCCCCCCC/C=C\C(=O)O [c2-HDA, (Z)-hexadec-2-enoic acid]
[1]
  binding of HilD to the hilA promoter: prevented the binding; also recorded: partially inhibited binding; also recorded: completely inhibited; also recorded: did so partially
[2]
  decrease of invasion of HEp-2 cells compared to untreated cultures: 78%
[3]
  effect on HilD stability in the absence of Lon: no effect on its stability
[4]
  cholera toxin secretion / toxin amounts in the culture media: reduced; also recorded: reduces cholera toxin secretion
[5]
  concentrations at which effects on virulence gene expression were apparent: ≥ 5 µM
  repression of ctxAB: 20 fold
  repression of virulence gene expression compared to Virstatin: repressed much more efficiently
[6]
  inhibition of hilA expression: 39%
  less potent in repressing hilA compared to the wild type: 39%
  reduction of hilA expression in the presence of only hilC: 20 fold
  reduction of hilA expression in the presence of only rtsA: 13 fold
  reduction of hilA expression, chain length comparison: 159 fold
  repression of hilA expression in the absence of Lon: continued to repress hilA expression
  repression of hilA in the presence of hilD only: 78 fold
[7]
  binding of HilC to the hilA promoter: preventing binding; also recorded: partially inhibited binding; also recorded: prevented binding; also recorded: did so partially
[8]
  reduction of the percentage of bacteria expressing SPI1 in the caecum: 2 fold
[9]
  expression of tcpA: represses expression
[10]
  binding of RtsA to the hilA promoter: preventing binding; also recorded: partially inhibited binding; also recorded: prevented binding; also recorded: did so partially
[11]
  effect on bacterial growth: did not impair bacterial growth
[12]
  inhibition of sopB expression in Δlon and ΔhilE mutants: inhibited sopB expression in these mutants to the level observed in the wild type strain
  repression of sopB: 11 fold
  repression of sopB expression: 68 fold

## CCCCCCC/C=C\C(=O)O [cis-2-decenoic acid, (Z)-dec-2-enoic acid]
[6]; FIG. 1F
  reduction of hilA expression, chain length comparison: 28%

## CCCCCCCCC/C=C\C(=O)O [cis-2-dodecenoic acid, (Z)-dodec-2-enoic acid]
[6]
  potency in repressing invasion genes relative to c2-HDA: less potent in repressing invasion genes than c2-HDA
[6]; FIG. 1F
  reduction of hilA expression, chain length comparison: 3 fold

## CCCCCCCCCCCCCCCCC/C=C\C(=O)OC [cis-2-eicosenoic acid methyl ester]
[6]
  repression of hilA expression by methyl ester: not to significantly repress hilA expression

## CCCCCCCCCCCCCCCCC/C=C\C(=O)O [cis-2-eicosenoic acid, (Z)-icos-2-enoic acid]
[6]; FIG. 1F
  reduction of hilA expression, chain length comparison: 10 fold
[6]; [13]
  repression of hilA in the presence of hilD only: 3 fold

## CCCCCCCCCCCCC/C=C\C(=O)OC [cis-2-hexadecenoic acid methyl ester]
[6]
  repression of hilA expression by methyl ester: not to significantly repress hilA expression

## CC(C)CCCCCCC/C=C\C(=O)O [cis-11-methyl-2-dodecenoic acid]
[6]
  potency in repressing invasion genes relative to c2-HDA: less potent in repressing invasion genes than c2-HDA

## CCCCCCCC/C=C\CCCCCCCC(=O)O [oleic acid, cis-9-octadecenoic acid, reference compound]
[2]; overnight growth with 20 μM compound
  decrease of invasion of HEp-2 cells compared to untreated cultures: 70%
[5]
  repression of ctxAB: 1.3 fold
[6]; 5 μM, hilA::luxCDABE, wild type (FIG. 1A)
  repression of hilA expression: 1.3 fold
[6]; [13]
  repression of hilA in the presence of hilD only: 1.2 fold

## CCCCCCCCCCCCCCCC(=O)O [palmitic acid, reference compound]
[5]
  repression of ctxAB: no repressive effects

## CCCCCCCCCCCCC/C=C/C(=O)O [trans-2-hexadecenoic acid, reference compound]
[6]; 20 μM fatty acids (FIG. 1A)
  fold less potent in repressing hilA than the cis-isomer: 31 fold

## O=C(O)CCCN1C(=O)c2cccc3cccc(c23)C1=O [virstatin, reference compound]
[5]
  repression of ctxAB: 1.2 fold
